Results from a compilation of properties of binary mixtures (doi:10.1016/j.fluid.2015.05.023).

Assay: xn = mol fraction of the nth substance listed
Conditions: 100 kPa

CCCCCCCCCCCn1cc[n+](C)c1.O=S(=O)([N-]S(=O)(=O)C(F)(F)F)C(F)(F)F + O
x2 = 0.1567
Conditions	viscosity [mPa·s]
298.15 K	96.4
303.15 K	75.7
308.15 K	60.46
313.15 K	49.36
318.15 K	40.26
323.15 K	33.49
328.15 K	28.17
333.15 K	24.19
343.15 K	17.77
348.15 K	15.5
353.15 K	13.94
358.15 K	12.05
363.15 K	10.72

CCCCCCCCCn1cc[n+](C)c1.O=S(=O)([N-]S(=O)(=O)C(F)(F)F)C(F)(F)F + O
x2 = 0.1736
Conditions	viscosity [mPa·s]
303.15 K	57.66
313.15 K	39.1
328.15 K	22.64
333.15 K	19.7
338.15 K	16.81
343.15 K	14.67
348.15 K	12.89
353.15 K	11.68

CCCCCCCCn1cc[n+](CCCCCCCC)c1.O=S(=O)([N-]S(=O)(=O)C(F)(F)F)C(F)(F)F + O
x2 = 0.1246
Conditions	viscosity [mPa·s]
298.15 K	120.2
313.15 K	58.75
318.15 K	47.76
323.15 K	39.33
328.15 K	32.75
333.15 K	27.56
338.15 K	23.43
343.15 K	20.09
348.15 K	17.37
353.15 K	15.13
363.15 K	11.72

CCCCCCC[n+]1ccn(C)c1.O=S(=O)([N-]S(=O)(=O)C(F)(F)F)C(F)(F)F + O
x2 = 0.1971
Conditions	viscosity [mPa·s]
298.15 K	52.98
303.15 K	42.58
313.15 K	28.95
328.15 K	17.77
333.15 K	15.4
338.15 K	13.45
343.15 K	11.85
348.15 K	10.51
353.15 K	9.36
363.15 K	7.58

CCCCCCCn1cc[n+](CCCCCCC)c1.O=S(=O)([N-]S(=O)(=O)C(F)(F)F)C(F)(F)F + O
x2 = 0.1365
Conditions	viscosity [mPa·s]
298.15 K	100.8
303.15 K	78.57
308.15 K	62.48
313.15 K	50.44
318.15 K	41.29
323.15 K	34.22
328.15 K	28.65
333.15 K	24.25
338.15 K	20.67
343.15 K	17.8
348.15 K	15.46
353.15 K	13.51
358.15 K	11.9
363.15 K	10.53

CCCCCCn1cc[n+](CCCCCC)c1.O=S(=O)([N-]S(=O)(=O)C(F)(F)F)C(F)(F)F + O
x2 = 0.1489
Conditions	viscosity [mPa·s]
298.15 K	83.49
308.15 K	52.59
313.15 K	42.72
318.15 K	35.17
323.15 K	29.31
333.15 K	21.02
338.15 K	18.06
343.15 K	15.65
348.15 K	13.67
353.15 K	12
358.15 K	10.63
363.15 K	9.466

CCCCCn1cc[n+](C)c1.O=S(=O)([N-]S(=O)(=O)C(F)(F)F)C(F)(F)F + O
x2 = 0.2211
Conditions	viscosity [mPa·s]
298.15 K	38.65
303.15 K	31.67
308.15 K	26.32
323.15 K	16.22
328.15 K	14.08
333.15 K	12.32
338.15 K	10.87
343.15 K	9.65
348.15 K	8.63
353.15 K	7.75
358.15 K	7
363.15 K	6.36

CCCCCn1cc[n+](CCCCC)c1.O=S(=O)([N-]S(=O)(=O)C(F)(F)F)C(F)(F)F + O
x2 = 0.1575
Conditions	viscosity [mPa·s]
298.15 K	66.87
303.15 K	53.1
308.15 K	42.91
318.15 K	29.21
323.15 K	24.56
328.15 K	20.86
333.15 K	17.88
343.15 K	13.46
348.15 K	11.83
353.15 K	10.46
363.15 K	8.34

CCCC[n+]1ccn(C)c1.O=S(=O)([N-]S(=O)(=O)C(F)(F)F)C(F)(F)F + O
x2 = 0.257
Conditions	viscosity [mPa·s]
298.15 K	31.31
303.15 K	25.93
308.15 K	21.78
313.15 K	18.52
318.15 K	15.92
323.15 K	13.82
328.15 K	12.1
338.15 K	9.475
348.15 K	7.629
358.15 K	6.275
363.15 K	5.73

CCCCn1cc[n+](CCCC)c1.O=S(=O)([N-]S(=O)(=O)C(F)(F)F)C(F)(F)F + O
x2 = 0.1843
Conditions	viscosity [mPa·s]
298.15 K	48.47
303.15 K	39.12
313.15 K	26.74
318.15 K	22.52
323.15 K	19.19
328.15 K	16.51
333.15 K	14.32
338.15 K	12.53
343.15 K	11.04
348.15 K	9.78
353.15 K	8.73

CCCn1cc[n+](C)c1.O=S(=O)([N-]S(=O)(=O)C(F)(F)F)C(F)(F)F + O
x2 = 0.272
Conditions	viscosity [mPa·s]
298.15 K	26.63
303.15 K	22.24
313.15 K	16.12
328.15 K	10.73
333.15 K	9.52
338.15 K	8.5
348.15 K	6.9
358.15 K	5.69
363.15 K	5.22

CCCn1cc[n+](CCC)c1.O=S(=O)([N-]S(=O)(=O)C(F)(F)F)C(F)(F)F + O
x2 = 0.2232
Conditions	viscosity [mPa·s]
298.15 K	35.66
308.15 K	24.31
318.15 K	17.47
323.15 K	15.05
328.15 K	13.09
338.15 K	10.15
343.15 K	9.03
353.15 K	7.29
358.15 K	6.6

CC[n+]1ccn(C)c1.O=S(=O)([N-]S(=O)(=O)C(F)(F)F)C(F)(F)F + O
x2 = 0.298
Conditions	viscosity [mPa·s]
298.15 K	18.97
308.15 K	14.06
318.15 K	10.83
323.15 K	9.63
328.15 K	8.615
338.15 K	7.02
343.15 K	6.382
348.15 K	5.832
353.15 K	5.35
358.15 K	4.926
363.15 K	4.549

CCn1cc[n+](CC)c1.O=S(=O)([N-]S(=O)(=O)C(F)(F)F)C(F)(F)F + O
x2 = 0.2772
Conditions	viscosity [mPa·s]
298.15 K	19.32
303.15 K	16.55
308.15 K	14.34
313.15 K	12.53
323.15 K	9.8
328.15 K	8.75
333.15 K	7.87
338.15 K	7.11
343.15 K	6.46
348.15 K	5.89
353.15 K	5.39
363.15 K	4.57

Cn1cc[n+](C)c1.O=S(=O)([N-]S(=O)(=O)C(F)(F)F)C(F)(F)F + O
x2 = 0.3548
Conditions	viscosity [mPa·s]
298.15 K	18.59
303.15 K	15.87
308.15 K	13.73
313.15 K	11.99
318.15 K	10.57
323.15 K	9.39
328.15 K	8.39
333.15 K	7.55
338.15 K	6.84
343.15 K	6.22
348.15 K	5.69
353.15 K	5.23
358.15 K	4.82
363.15 K	4.46
